Columns and labels:
core clock components = test: Time dependent protein and mRNA analysis in synchronized U2OS cells; type: cell-based, human
Procedure: FIGS. 5A-5K are an illustration of FORMULA I altered CLOCK protein level in time dependent manner. Confluent U2OS cells were synchronized by 2-hours treatment with dexamethasone (0.1 μM) and medium replaced with fresh medium containing CLK8 or DMSO. Cells were harvested at indicated time points. FIGS. 5A-5D show a time dependent analysis of core clock proteins by Western blot. (mean±SEM, n=3). FIGS. 5E-5K show a qPCR analysis of the core clock genes in a time dependent manner. (Data represent the mean±SEM, n=3 ***: p<0.001 **: p<0.005, *: p<0.05 versus DMSO control by one-way ANOVA Tukey).
Unsynchronized Bmal1::dluc U2OS cells were seeded on 6-well dishes. Confluent cells were treated with an appropriate amount of CLK8 for 48 hours. Control cells were treated with 0.5% vehicle (DMSO). After harvesting the cells, mRNAs were isolated (RNeasy, QIAGEN) and converted to cDNA (Thermo Scientific). Finally, cDNAs were subjected to SYBR Green-based RT-qPCR assay. PRLP0 was used as an internal control. For western blot analysis RIPA buffer was used to prepare whole cell lysates. The amount of protein for each sample was normalized to the β-ACTIN amount detected by β-Actin antibody (Cell Signalling).

Bmal1, Clock, and Cry1 = test: In vivo study in mouse liver, qPCR; details: 25 mg/kg i.p., 6 h
Procedure: Male C57BL/6J mice, 8 weeks of age, weighing 18-24 g were treated with two different single doses of CLK8 (25 mg/kg n=5 per each dose) intraperitoneally. Control mice (n=3) were only treated with vehicle (DMSO:Cremophor EL: 0.9% NaCl; 2.5:15:82.5, v/v, i.p.). Water and food were provided ad libitum throughout the experiments. Six hours after injection, mice were sacrificed by cervical dislocation. Liver tissues were removed, frozen in liquid nitrogen and stored at −80° C. until further processing.

CLOCK = target: T1, CLOCK (Homo sapiens, UniProt O15516); test: Pull-down assay with biotinylated CLK8, lysate of HEK293T cells overexpressing CLOCK and BMAL1; type: binding; parameters: expressed in transfected cells; host or cells: HEK293T; details: 200 μM competitor
T1 sequence (O15516 1-846): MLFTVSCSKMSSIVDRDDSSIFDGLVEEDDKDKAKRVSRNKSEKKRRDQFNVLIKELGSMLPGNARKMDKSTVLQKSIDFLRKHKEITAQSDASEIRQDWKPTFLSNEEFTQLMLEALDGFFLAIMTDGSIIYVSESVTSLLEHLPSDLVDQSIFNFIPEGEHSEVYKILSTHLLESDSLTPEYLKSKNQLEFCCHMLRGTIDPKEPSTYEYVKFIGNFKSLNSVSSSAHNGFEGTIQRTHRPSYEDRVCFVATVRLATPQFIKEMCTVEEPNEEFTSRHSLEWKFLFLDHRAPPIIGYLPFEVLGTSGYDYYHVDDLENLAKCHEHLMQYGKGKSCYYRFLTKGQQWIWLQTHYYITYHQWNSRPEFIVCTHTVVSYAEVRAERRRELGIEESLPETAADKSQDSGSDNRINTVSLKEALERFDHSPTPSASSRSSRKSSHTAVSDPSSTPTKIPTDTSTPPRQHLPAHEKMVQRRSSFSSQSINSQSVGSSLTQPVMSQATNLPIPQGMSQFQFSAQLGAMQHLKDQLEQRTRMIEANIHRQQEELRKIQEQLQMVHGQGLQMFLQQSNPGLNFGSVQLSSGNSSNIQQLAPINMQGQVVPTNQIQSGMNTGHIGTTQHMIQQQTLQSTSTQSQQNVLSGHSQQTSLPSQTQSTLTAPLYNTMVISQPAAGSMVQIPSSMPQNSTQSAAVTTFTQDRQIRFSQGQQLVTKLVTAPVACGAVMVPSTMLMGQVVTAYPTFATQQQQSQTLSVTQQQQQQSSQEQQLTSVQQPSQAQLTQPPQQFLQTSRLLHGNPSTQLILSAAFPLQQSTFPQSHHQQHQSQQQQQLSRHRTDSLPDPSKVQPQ
Procedure: HEK293T cells were transiently transfected with tag-free hsClock and mBmal1. After 48 hours of transfection, cells were harvested and whole cell lysate was prepared with ice-cold lysis buffer (50 mM Tris-HCl pH 7.4, 2 mM EDTA, 1 mM MgCl2, 0.2% NP-40, 1 mM sodium orthovanadate, 1 mM sodium fluoride and protease inhibitor cocktail) followed by centrifugation at 7000×g at 4° C. for 10 minutes. Lysate was diluted with ice-cold 2× binding buffer (100 mM Tris-HCl pH 7.4, 300 mM NaCl, 0.2% NP-40, 2 mM sodium orthovanadate, 2 mM sodium fluoride, and protease inhibitor cocktail) 27. The lysate was divided into three fractions to be treated with either DMSO, or 20 μM of bitoinylated-CLK8 (bait) with or without 200 μM CLK8 (competitor). The lysate-compound samples were incubated and mixed continuously at 4° C. for 1 hour. After equilibrating NeutroAvidin Agarose resin (Thermo Scientific) with lysis buffer, the lysate-compound mixture and NeutroAvidin Agarose resin were incubated and mixed continuously at 4° C. overnight. The beads were washed four times with 1× binding buffer. To elute the bound proteins Laemmli buffer was added and samples were heated at 95° C. for 7 minutes. The pull-down precipitates were subjected to SDS-PAGE and transferred to a PVDF membrane (Millipore). […]

**Q.** With `CC1(C)CCc2c(cc(OCC(=O)Nc3ccccc3C(N)=O)c3c(-c4ccccc4)cc(=O)oc23)O1` [CLK8, 2-[2-({12,12-dimethyl-4-oxo-6-phenyl-3,11-dioxatricyclo [8.4.0.0,2,7]tetradeca-1,5,7,9-tetraen-8-yl}oxy)acetamido] benzamide] as the compound, how does the “CRY1 and PER2 protein abundance” value (core clock components) read?
**A.** The value was “comparable protein abundance”.

**Q.** And the “CRY1 and PER2 transcript level” value (core clock components)?
**A.** Its value is “significantly reduced”.

**Q.** What about the “protein levels of CLOCK and BMAL1” value (core clock components) of the same compound?
**A.** Its value is “reduced”.

**Q.** What about the “transcriptional level of Clock” value (core clock components) of the same compound?
**A.** The value was “increased”.

**Q.** What about the “oscillatory amplitude of clock gene expression” value (core clock components; collected every 6 h) of the same compound?
**A.** The value was “generally lower”.

**Q.** And the “Cry1 gene's transcriptional level (liver)” value (Bmal1, Clock, and Cry1)?
**A.** Its value is “significantly changed”.

**Q.** What about the “binding to CLOCK (competition with bait)” value (CLOCK) of the same compound?
**A.** The value was “specifically binds to CLOCK”.

— patent US12558342B2, “2-[2-({12,12-dimethyl-4-oxo-6-phenyl-3,11-dioxatricyclo[8.4.0.0,2,7]tetradeca-1,5,7,9-tetraen-8-yl}oxy)acetamido]benzamide and derivatives as inhibitor of clock:bmal1 interaction for the treatment of circadian rhythm diseases and disorders” (KOC UNIVERSITESI, priority 2019, dated 2026)
